Measured values as given in patent US20020035061A1, “COMPOSITIONS AND METHODS FOR TREATING INFECTIONS USING CATIONIC PEPTIDES ALONE OR IN COMBINATION WITH ANTIBIOTICS” (priority 1996, published 2002).
Values after ≈ are worked out from the molar mass of the structure shown. Values joined by “and” are separate entries in the source; they are usually repeats but may differ in a detail not shown here. Equal entries are not always repeated. Where two headings read alike, the source gives them in different places.

How the values were obtained:
Test in all cases: microbe, parasite or virus in culture
Assay type in all cases: cell-based
bacterial isolates = conditions: for Peptide MIC Alone: 4. Gentamicin; for FIC: peptide + Gentamicin
[1] = system: inherently resistant microorganisms; conditions: for Peptide MIC Alone: Amikacin section; for FIC: peptide + Amikacin
[2] = system: microorganisms with acquired resistance; conditions: for Peptide MIC Alone: Gentamicin section; for FIC: peptide + Gentamicin
[3] = system: vancomycin / teicoplanin resistant enterococci
[4] = Enterococcus faecalis, read-out: Amikacin MIC Alone, E. faecalis EFS008
[5] = Enterococcus faecium, read-out: Amikacin MIC Alone, E. faecium EFM004
[6] = Pseudomonas aeruginosa, read-out: Amikacin MIC Alone, P. aeruginosa PA022
[7] = S. maltophilia (strain line r400 not shown)

In the case of NCC[C@H](O)C(=O)N[C@@H]1C[C@H](N)[C@@H](O[C@H]2O[C@H](CN)[C@@H](O)[C@H](O)[C@H]2O)[C@H](O)[C@H]1O[C@H]1O[C@H](CO)[C@@H](O)[C@H](N)[C@H]1O [Amikacin], the “Amikacin MIC Alone” value (bacterial isolates; A. baumannii ABI001) is reported as 32 µg/mL, the MIC (bacterial isolates; Acinetobacter baumannii, read-out: Amikacin MIC Alone, A. baumannii ABI001) is reported as 64 µg/mL (≈ 109 µM) and the MIC (bacterial isolates; Acinetobacter baumannii, read-out: Amikacin MIC Alone, A. baumannii ABI003) is reported as 16 µg/mL (≈ 27.3 µM). For the same compound, the “Amikacin MIC Alone” value (bacterial isolates; B. cepacia BC005) was 128 µg/mL, the MIC (bacterial isolates; Burkholderia cepacia, read-out: Amikacin MIC Alone, B. cepacia BC003) was 32 µg/mL (≈ 54.6 µM) and the MIC (bacterial isolates; Burkholderia cepacia, read-out: Amikacin MIC Alone, B. cepacia BC005) was 64 µg/mL (≈ 109 µM). The “Amikacin MIC Alone” value (bacterial isolates; E. faecalis EFS008) was 64 µg/mL, the “Amikacin MIC Alone” value (bacterial isolates; E. faecium EFM004) was greater than 128 µg/mL and the MIC (bacterial isolates; [4]) was 32 µg/mL (≈ 54.6 µM). For the same compound, the MIC (bacterial isolates; [5]) was 128 µg/mL (≈ 219 µM), the MIC (bacterial isolates; Escherichia coli, read-out: Amikacin MIC Alone, E. coli ECO022) was 16 µg/mL (≈ 27.3 µM) and the “Amikacin MIC Alone” value (bacterial isolates; P. aeruginosa PA022) was 128 µg/mL. For the same compound, the MIC (bacterial isolates; [6]) was 64 µg/mL (≈ 109 µM), the MIC (bacterial isolates; Pseudomonas aeruginosa, read-out: Amikacin MIC Alone, P. aeruginosa PA037) was 16 µg/mL (≈ 27.3 µM) and the “Amikacin MIC Alone” value (bacterial isolates; S. epidermidis SE003) was 64 µg/mL. For the same compound, the “Amikacin MIC Alone” value (bacterial isolates; S. maltophilia SMA018) was greater than 128 µg/mL, the “Amikacin MIC Alone” value (bacterial isolates; S. maltophilia SMA037) was 64 µg/mL and the MIC (bacterial isolates; Staphylococcus aureus, MRSA, read-out: Amikacin MIC Alone, S. aureus SA014 MRSA) was 32 µg/mL (≈ 54.6 µM). The MIC (bacterial isolates; Staphylococcus aureus, MRSA, read-out: Amikacin MIC Alone, S. aureus SA025 MRSA) was 32 µg/mL (≈ 54.6 µM), the MIC (bacterial isolates; Staphylococcus epidermidis, read-out: Amikacin MIC Alone, S. epidermidis SE002) was 64 µg/mL (≈ 109 µM) and the MIC (bacterial isolates; Staphylococcus epidermidis, read-out: Amikacin MIC Alone, S. epidermidis SE003) was 32 µg/mL (≈ 54.6 µM). The MIC (bacterial isolates; Stenotrophomonas maltophilia, read-out: Amikacin MIC Alone, S. maltophilia SMA018) was 128 µg/mL (≈ 219 µM), the MIC (bacterial isolates; Stenotrophomonas maltophilia, read-out: Amikacin MIC Alone, S. maltophilia SMA021) was 128 µg/mL (≈ 219 µM) and the MIC (bacterial isolates; Stenotrophomonas maltophilia, read-out: Amikacin MIC Alone, S. maltophilia SMA022) was greater than 128 µg/mL. It also gave an MIC (bacterial isolates; Stenotrophomonas maltophilia, read-out: Amikacin MIC Alone, S. maltophilia SMA036) greater than 128 µg/mL, an MIC (bacterial isolates; Stenotrophomonas maltophilia, read-out: Amikacin MIC Alone, S. maltophilia SMA037) of 128 µg/mL (≈ 219 µM) and an MIC (bacterial isolates; Stenotrophomonas maltophilia, read-out: Amikacin MIC Alone, S. maltophilia SMA060) greater than 128 µg/mL. It also gave an MIC (bacterial isolates; Stenotrophomonas maltophilia, read-out: Amikacin MIC Alone, S. maltophilia SMA063) greater than 128 µg/mL, an MIC (bacterial isolates; Stenotrophomonas maltophilia, read-out: Amikacin MIC Alone, S. maltophilia SMA064) greater than 128 µg/mL and an MIC ([1]; Acinetobacter baumannii, read-out: Amikacin MIC + Peptide, A. baumannii, peptide Deber A2KA2) of 16 µg/mL. The MIC ([1]; Acinetobacter baumannii, read-out: Amikacin MIC + Peptide, A. baumannii, peptide MBI 11B16CN) was 4 µg/mL, the MIC ([1]; Acinetobacter baumannii, read-out: Amikacin MIC + Peptide, A. baumannii, peptide MBI 27) was 16 µg/mL and the MIC ([1]; Acinetobacter baumannii, read-out: Amikacin MIC + Peptide, A. baumannii, peptide MBI 29F1) was 16 µg/mL. For the same compound, the MIC ([1]; Acinetobacter baumannii, read-out: Amikacin MIC Alone, A. baumannii) was 32 µg/mL (≈ 54.6 µM), the “Amikacin MIC + Peptide” value ([1]; B. cepacia, peptide MBI 29A3) was 32 µg/mL and the MIC ([1]; Burkholderia cepacia, read-out: Amikacin MIC + Peptide, B. cepacia, peptide MBI 27) was 16 µg/mL. For the same compound, the MIC ([1]; Burkholderia cepacia, read-out: Amikacin MIC + Peptide, B. cepacia, peptide MBI 29A3) was 16 µg/mL, the “Amikacin MIC + Peptide” value ([1]; S. aureus MRSA, peptide MBI 11B16CN) was 4 µg/mL and the “Amikacin MIC + Peptide” value ([1]; S. maltophilia, peptide MBI 11B16CN) was 4 µg/mL. The “Amikacin MIC + Peptide” value ([1]; S. maltophilia, peptide MBI 21A2) was 16 µg/mL, the “Amikacin MIC + Peptide” value ([1]; S. maltophilia, peptide MBI 26) was 16 µg/mL and the “Amikacin MIC + Peptide” value ([1]; S. maltophilia, peptide MBI 29A3) was 16 µg/mL. For the same compound, the MIC ([1]; Staphylococcus aureus, MRSA, read-out: Amikacin MIC + Peptide, S. aureus MRSA, peptide Deber A2KA2) was 0.125 µg/mL, the MIC ([1]; Staphylococcus aureus, MRSA, read-out: Amikacin MIC + Peptide, S. aureus MRSA, peptide MBI 11B16CN) was 8 µg/mL and the MIC ([1]; Staphylococcus aureus, MRSA, read-out: Amikacin MIC + Peptide, S. aureus MRSA, peptide MBI 21A2) was 2 µg/mL. For the same compound, the MIC ([1]; Staphylococcus aureus, MRSA, read-out: Amikacin MIC + Peptide, S. aureus MRSA, peptide MBI 27) was 16 µg/mL, the MIC ([1]; Staphylococcus aureus, MRSA, read-out: Amikacin MIC + Peptide, S. aureus MRSA, peptide MBI 29F1) was 16 µg/mL and the MIC ([1]; Staphylococcus aureus, MRSA, read-out: Amikacin MIC Alone, S. aureus MRSA) was 32 µg/mL (≈ 54.6 µM). The MIC ([1]; Stenotrophomonas maltophilia, read-out: Amikacin MIC + Peptide, S. maltophilia, peptide MBI 11B16CN) was 8 µg/mL, the MIC ([1]; Stenotrophomonas maltophilia, read-out: Amikacin MIC + Peptide, S. maltophilia, peptide MBI 21A2) was 8 µg/mL and the MIC ([1]; Stenotrophomonas maltophilia, read-out: Amikacin MIC + Peptide, S. maltophilia, peptide MBI 26) was 8 µg/mL. It also gave an MIC ([1]; Stenotrophomonas maltophilia, read-out: Amikacin MIC + Peptide, S. maltophilia, peptide MBI 29A3) of 8 µg/mL, an MIC ([1]; Stenotrophomonas maltophilia, read-out: Amikacin MIC + Peptide, S. maltophilia, peptide MBI 29F1) of 8 µg/mL and an MIC ([1]; Stenotrophomonas maltophilia, read-out: Amikacin MIC Alone, S. maltophilia) of 128 µg/mL (≈ 219 µM). For the same compound, the MIC [2, 6] was 64 µg/mL (≈ 109 µM), the “Amikacin MIC Alone” value ([3]; E. faecium EFM004) was 64 µg/mL and >128 µg/mL and the MIC [3, 4] was 64 µg/mL (≈ 109 µM). It also gave an MIC [3, 5] of 128 µg/mL (≈ 219 µM) and an MIC ([3]; Enterococcus faecium, read-out: Amikacin MIC Alone, E. faecium EFM020) of 32 µg/mL (≈ 54.6 µM).

“KKAAAKAAAAAKAAWAAKAAAKKKK [Deber A2KA2, reference compound]” was tested, and the “Peptide MIC Alone” value (bacterial isolates; A. baumannii ABI001) was greater than 128 µg/mL, the “Peptide MIC Alone” value (bacterial isolates; A. baumannii ABI002) was greater than 128 µg/mL and the “Peptide MIC Alone” value (bacterial isolates; A. calcoaceticus AC001) was greater than 128 µg/mL. For the same compound, the “Peptide MIC Alone” value (bacterial isolates; P. aeruginosa PA022) was greater than 128 µg/mL, the “Peptide MIC Alone” value (bacterial isolates; P. aeruginosa PA041) was greater than 128 µg/mL and the “Peptide MIC Alone” value (bacterial isolates; [7]) was greater than 128 µg/mL. The “Peptide MIC Alone” value (bacterial isolates; S. maltophilia SMA017) was greater than 128 µg/mL, the “Gentamicin MIC + Peptide” value (bacterial isolates; A. baumannii ABI001) was 32 µg/mL and the “Peptide MIC + Gentamicin” value (bacterial isolates; A. baumannii ABI001) was 8 µg/mL. The “Gentamicin MIC + Peptide” value (bacterial isolates; A. baumannii ABI002) was 32 µg/mL, the “Peptide MIC + Gentamicin” value (bacterial isolates; A. baumannii ABI002) was 0.125 µg/mL and the “Gentamicin MIC + Peptide” value (bacterial isolates; A. calcoaceticus AC001) was 4 µg/mL. For the same compound, the “Peptide MIC + Gentamicin” value (bacterial isolates; A. calcoaceticus AC001) was 16 µg/mL, the “Gentamicin MIC + Peptide” value (bacterial isolates; P. aeruginosa PA022) was 16 µg/mL and the “Peptide MIC + Gentamicin” value (bacterial isolates; P. aeruginosa PA022) was 4 µg/mL. For the same compound, the “Gentamicin MIC + Peptide” value (bacterial isolates; P. aeruginosa PA041) was 8 µg/mL, the “Peptide MIC + Gentamicin” value (bacterial isolates; P. aeruginosa PA041) was 0.125 µg/mL and the “Gentamicin MIC + Peptide” value (bacterial isolates; [7]) was 64 µg/mL. The “Peptide MIC + Gentamicin” value (bacterial isolates; [7]) was 0.125 µg/mL, the “Gentamicin MIC + Peptide” value (bacterial isolates; S. maltophilia SMA017) was 64 µg/mL and the “Peptide MIC + Gentamicin” value (bacterial isolates; S. maltophilia SMA017) was 0.125 µg/mL. For the same compound, the FIC (bacterial isolates; A. baumannii ABI001) was 0.53, the FIC (bacterial isolates; A. baumannii ABI002) was 0.50 and the FIC (bacterial isolates; A. calcoaceticus AC001) was 0.56. For the same compound, the FIC (bacterial isolates; P. aeruginosa PA022) was 0.52, the FIC (bacterial isolates; P. aeruginosa PA041) was 0.50 and the FIC (bacterial isolates; [7]) was 0.50. The FIC (bacterial isolates; S. maltophilia SMA017) was 0.50, the “Peptide MIC + Amikacin” value ([1]; A. baumannii) was 32 µg/mL and the “Peptide MIC Alone” value ([1]; A. baumannii) was greater than 128 µg/mL. For the same compound, the “Peptide MIC + Amikacin” value ([1]; S. aureus MRSA) was 8 µg/mL, the “Peptide MIC Alone” value ([1]; S. aureus MRSA) was 16 µg/mL and the FIC ([1]; A. baumannii) was 0.63. For the same compound, the FIC ([1]; S. aureus MRSA) was 0.50, the “Gentamicin MIC + Peptide” value ([2]; A. calcoaceticus AC001) was 4 µg/mL and the “Peptide MIC + Gentamicin” value ([2]; A. calcoaceticus AC001) was 16 µg/mL. The “Peptide MIC Alone” value ([2]; A. calcoaceticus AC001) was greater than 128 µg/mL, the “Gentamicin MIC + Peptide” value ([2]; P. aeruginosa PA041) was 4 µg/mL and the “Peptide MIC + Gentamicin” value ([2]; P. aeruginosa PA041) was 64 µg/mL. For the same compound, the “Peptide MIC Alone” value ([2]; P. aeruginosa PA041) was greater than 128 µg/mL, the FIC ([2]; A. calcoaceticus AC001) was 0.56 and the FIC ([2]; P. aeruginosa PA041) was 0.50. The “Amikacin MIC + Peptide” value ([3]; E. faecalis EFS008) was 8 µg/mL, the “Peptide MIC + Amikacin” value ([3]; E. faecalis EFS008) was 16 µg/mL and the “Peptide MIC Alone” value ([3]; E. faecalis EFS008, Amikacin section) was greater than 128 µg/mL. The FIC ([3]; peptide + Amikacin, E. faecalis EFS008) was 0.19.
